Assay results published in US20050245399A1, “Pyrazole derivatives as herbicidal compositions containing them” (ISHIHARA SANGYO KAISHA, LTD., priority 2004, published 2005).

Tests used:
Type in all cases: in vivo
[1] = tested on: barnyardgrass (Echinochloa crus-galli L.): ECHCG; experiment: Test Example 1 pre-emergence herbicidal activity, ECHCG; details: visually observed 20th to 23rd day after application
Procedure, shortened: (§1)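 Seeds sown in upland field soil in pots; one day later compound, formulated as wettable powder or emulsifiable concentrate and diluted with water at 500 L/ha, sprayed pre-emergence at a predetermined active-ingredient rate. Growth control scored visually 20–23 days after application, 0 (untreated-like) to 100 (complete kill) %.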

[2] = tested on: crabgrass (Digitaria sanguinalis L.): DIGSA; experiment: Test Example 1 pre-emergence herbicidal activity, DIGSA; details: visually observed 20th to 23rd day after application
Procedure, shortened: as §1

[3] = tested on: green foxtail (Setaria viridis L.): SETVI; experiment: Test Example 1 pre-emergence herbicidal activity, SETVI; details: visually observed 20th to 23rd day after application
Procedure, shortened: as §1

[4] = tested on: redroot pigweed (Amaranthus retroflexus L.): AMARE; experiment: Test Example 1 pre-emergence herbicidal activity, AMARE; details: visually observed 20th to 23rd day after application
Procedure, shortened: as §1

[5] = tested on: velvetleaf (Abutilon theophrasti): ABUTH; experiment: Test Example 1 pre-emergence herbicidal activity, ABUTH; details: visually observed 20th to 23rd day after application
Procedure, shortened: as §1

[6] = tested on: rice (Oryza sativa L.): ORYSA; experiment: Test Example 1 pre-emergence herbicidal activity, ORYSA; details: visually observed 20th to 23rd day after application
Procedure, shortened: as §1

[7] = tested on: wheat (Triticum aestivum L.): TRZAX; experiment: Test Example 1 pre-emergence herbicidal activity, TRZAX; details: visually observed 20th to 23rd day after application
Procedure, shortened: as §1

[8] = tested on: corn (Zea mays L.): ZEAMX; experiment: Test Example 1 pre-emergence herbicidal activity, ZEAMX; details: visually observed 20th to 23rd day after application
Procedure, shortened: as §1

[9] = tested on: soybean (Glycine max Merr.): GLXMA; experiment: Test Example 1 pre-emergence herbicidal activity, GLXMA; details: visually observed 20th to 23rd day after application
Procedure, shortened: as §1

[10] = tested on: barnyardgrass (Echinochloa crus-galli L.), ECHCG; experiment: Test Example 2 post-emergence (foliage treatment) herbicidal activity, ECHCG; details: 63 g a.i./ha
Procedure, shortened: (§2)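 Pot-grown plants in upland soil were sprayed over the foliage at ECHCG 1.1-2.1, DIGSA 1.0-2.0, AMARE 0.1-1.5 and ORYSA 1.0-2 leaf stage. Wettable powder or emulsifiable concentrate was diluted in water at 500 L/ha plus 0.1% (v/v) spreader. Growth control was scored visually 20-23 days later, 0 (untreated) to 100% (complete kill).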

[11] = tested on: crabgrass (Digitaria sanguinalis L.), DIGSA; experiment: Test Example 2 post-emergence (foliage treatment) herbicidal activity, DIGSA; details: 63 g a.i./ha
Procedure, shortened: as §2

[12] = tested on: redroot pigweed (Amaranthus retroflexus L.), AMARE; experiment: Test Example 2 post-emergence (foliage treatment) herbicidal activity, AMARE; details: 63 g a.i./ha
Procedure, shortened: as §2

[13] = tested on: prickly sida (Sida spinosa L.), SIDSP; experiment: Test Example 2 post-emergence (foliage treatment) herbicidal activity, SIDSP; details: 63 g a.i./ha
Procedure, shortened: (§3)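 Foliar spray of formulated compound (500 L/ha dilution water, 0.1% v/v spreader) onto young potted plants at defined leaf stages. Scored 0-100% by visual inspection 20-23 d post-spray.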

[14] = tested on: velvetleaf (Abutilon theophrasti), ABUTH; experiment: Test Example 2 post-emergence (foliage treatment) herbicidal activity, ABUTH; details: 63 g a.i./ha
Procedure, shortened: as §3

[15] = tested on: rice (Oryza sativa L.), ORYSA; experiment: Test Example 2 post-emergence (foliage treatment) herbicidal activity, ORYSA; details: 63 g a.i./ha
Procedure, shortened: as §2

[16] = tested on: wheat (Triticum aestivum L.), TRZAX; experiment: Test Example 2 post-emergence (foliage treatment) herbicidal activity, TRZAX; details: 63 g a.i./ha
Procedure, shortened: as §3

[17] = tested on: corn (Zea mays L.), ZEAMX; experiment: Test Example 2 post-emergence (foliage treatment) herbicidal activity, ZEAMX; details: 63 g a.i./ha
Procedure, shortened: as §3

[18] = tested on: soybean (Glycine max Merr.), GLXMA; experiment: Test Example 2 post-emergence (foliage treatment) herbicidal activity, GLXMA; details: 63 g a.i./ha
Procedure, shortened: as §3

[19] = tested on: barnyardgrass (Echinochiloa oryzicola: ECHOR); experiment: Test Example 3 water application herbicidal activity (paddy), ECHOR; details: 63 g a.i./ha, water application under submerged condition at 0.5 leaf stage, visually observed 14th day after application; 0 = untreated control, 100 = complete kill
Procedure, shortened: (§4)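 Flooded paddy-soil pots in greenhouse; ECHOR and SCPJO sown, SAGPY tubers planted a day later, compound applied into 3–4 cm water at weeds' 0.5-leaf stage. Rice transplanted at 2-leaf stage, treated day 4 after transplanting. Visual growth control 0–100% at 14 days (weeds) and 21 days (rice) after application.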

[20] = tested on: japanese bulrush (Scirpus juncoides: SCPJO); experiment: Test Example 3 water application herbicidal activity (paddy), SCPJO; details: 63 g a.i./ha, water application under submerged condition at 0.5 leaf stage, visually observed 14th day after application; 0 = untreated control, 100 = complete kill
Procedure, shortened: as §4

[21] = tested on: japanese ribbon wapato (Sagittaria pygmaea: SA GPY); experiment: Test Example 3 water application herbicidal activity (paddy), SAGPY; details: 63 g a.i./ha, water application under submerged condition, tubers planted, visually observed 14th day after application; 0 = untreated control, 100 = complete kill
Procedure, shortened: as §4

[22] = tested on: rice (Oryza sativa L.: ORYSA); experiment: Test Example 3 water application herbicidal activity (paddy), transplanted rice ORYSA; details: 63 g a.i./ha, water application 4th day after transplantation of 2 leaf stage rice, visually observed 21st day after application; 0 = untreated control, 100 = complete kill
Description: Paddy field soil was put into a 1/1,000,000 ha pot and seeds of barnyardgrass (Echinochiloa oryzicola: ECHOR) and japanese bulrush (Scirpus juncoides: SCPJO) were sown and slightly covered with soil. Then the pot was left to stand still in a greenhouse in a state where the depth of flooding water was from 0.5 to 1 cm, and one day later, tubers of japanese ribbon wapato (Sagittaria pygmaea: SA GPY) were planted. Thereafter, the depth of flooding water was maintained at a level of from 3 to 4 cm, and when barnyardgrass and japanese bulrush reached a 0.5 leaf stage, an aqueous diluted solution of a wettable powder or emulsifiable concentrate having the compound of the present invention formulated in accordance with a usual formulation method, was uniformly applied under submerged condition by a pipette so that the dose of the active ingredient would be at a predetermined level. On the other hand, paddy filed soil was put into a 1/1,000,000 ha pot and puddled and leveled, and the depth of flooding water was from 3 to 4 cm. One day later, rice (Oryza sativa L.: ORYSA) of 2 leaf stage was transplanted in a depth of 3 cm. On the 4th day after the transplantation, the compound of the present invention was applied in the same manner as described above. On the 14th day after the application of the herbicide, the growth of barnyardgrass, japanese burlush and japanese ribbon wapato was visually observed and on the 21st day after the application of the herbicide, the growth of rice was visually observed, and the herbicidal effects were evaluated by growth controlling degrees (%) ranging from 0 (equivalent to the untreated control) to 100 (complete kill), whereby the results shown in Table 6, were obtained. Compound Nos. in Table 6 correspond to Compound Nos. in Table 1 and 2 given hereinbefore.

[23] = tested on: prickly sida (Sida spinosa L.): SEDSP; experiment: Test Example 1 pre-emergence herbicidal activity, SIDSP; details: Rate 125 g a.i./ha, visually observed 20th to 23rd day after application
Procedure, shortened: as §1

[24] = tested on: green foxtail (Setaria viridis L.), SETVI; experiment: Test Example 2 post-emergence (foliage treatment) herbicidal activity, SETVI; details: 63 g a.i./ha
Procedure, shortened: as §3

Row | Compound | growth controlling degree, ECHCO [10] | growth controlling degree, DIGSP [11] | growth controlling degree, SIDSP [13] | growth controlling degree, ABUTH [14] | growth controlling degree, ORYSA [15] | growth controlling degree, TRZAX [16] | growth controlling degree, ZEAMX [17] | growth controlling degree, GLXMA [18] | growth controlling degrees (%) ECHOR [19] | growth controlling degrees (%) SCPJO [20] | growth controlling degrees (%) SAGPY [21] | growth controlling degrees (%) ORYSA [22] | other results
1 | CCOC(=O)Nc1c(OC)c(Cl)cc(F)c1-c1nn(C)c(OC(F)F)c1Cl [Compound 1-273] | 30% | 20% | 90% | 98% | 10% | 20% | 10% | 60% | 70% | 0% | 0% | 30% | Pre-emergence Herbicidal Activity ECHCG (growth controlling degree) ([1]; Rate 63 g a.i./ha): 0%; Pre-emergence Herbicidal Activity DIGSP (growth controlling degree) ([2]; Rate 63 g a.i./ha): 30%; Pre-emergence Herbicidal Activity SETVI (growth controlling degree) ([3]; Rate 63 g a.i./ha): 20%; Pre-emergence Herbicidal Activity AMARE (growth controlling degree) ([4]; Rate 63 g a.i./ha): 80%; Pre-emergence Herbicidal Activity ABUTH (growth controlling degree) ([5]; Rate 63 g a.i./ha): 10%; Pre-emergence Herbicidal Activity ORYSA (growth controlling degree) ([6]; Rate 63 g a.i./ha): 10%; Pre-emergence Herbicidal Activity TRZAX (growth controlling degree) ([7]; Rate 63 g a.i./ha): 0%; Pre-emergence Herbicidal Activity ZEAMX (growth controlling degree) ([8]; Rate 63 g a.i./ha): 0%; Pre-emergence Herbicidal Activity GLXMA (growth controlling degree) ([9]; Rate 63 g a.i./ha): 0%; growth controlling degree, AMARE [12]: 100%
2 | [3-chloro-6-[4-chloro-5-(difluoromethoxy)-1-methyl-1H-pyrazol-3-yl]-5-fluoro-2-methoxyphenyl]2-propynyl-formamide [Compound 1-7] | 50% | 10% | 100% | 100% | 40% | 10% | 40% | 50% | 95% | 60% | 0% | 20% | Pre-emergence Herbicidal Activity ECHCG (growth controlling degree) ([1]; Rate 125 g a.i./ha): 70%; Pre-emergence Herbicidal Activity DIGSP (growth controlling degree) ([2]; Rate 125 g a.i./ha): 100%; Pre-emergence Herbicidal Activity SETVI (growth controlling degree) ([3]; Rate 125 g a.i./ha): 95%; Pre-emergence Herbicidal Activity AMARE (growth controlling degree) ([4]; Rate 125 g a.i./ha): 100%; Pre-emergence Herbicidal Activity SIDSP (growth controlling degree) [23]: 90%; Pre-emergence Herbicidal Activity ABUTH (growth controlling degree) ([5]; Rate 125 g a.i./ha): 80%; Pre-emergence Herbicidal Activity ORYSA (growth controlling degree) ([6]; Rate 125 g a.i./ha): 20%; Pre-emergence Herbicidal Activity TRZAX (growth controlling degree) ([7]; Rate 125 g a.i./ha): 20%; Pre-emergence Herbicidal Activity ZEAMX (growth controlling degree) ([8]; Rate 125 g a.i./ha): 0%; Pre-emergence Herbicidal Activity GLXMA (growth controlling degree) ([9]; Rate 125 g a.i./ha): 10%; growth controlling degree, SETVI [24]: 70%
